US8160709B2, “Use of electrical stimulation of the lower esophageal sphincter to modulate lower esophageal sphincter pressure” (Endostim, Inc., priority 2006, dated 2012)
Entries after “also recorded” stand apart in the source; their conditions may differ. Marks after values point to notes of the source that are not given here.

Test system: lower esophageal sphincter
Experiment: Lower esophageal sphincter pressure recording during NGES in anesthetized dogs, after L-NAME and atropine
Assay type: in vivo
Experimental: All recordings were performed one hour after consumption of three ounces of canned dog food to prevent fluctuations in lower esophageal sphincter pressure, and under mild sedation (acepromazine 0.5 mg/kg). During electrical stimulation days, tests consisted of three periods of 20 minutes each: […] Electrical stimulation was delivered using an external pulse generator. […] Area under the curve (“AUC”) and pressure were compared among the three periods. Data are shown as mean±SD, ANOVA and t-test, p<0.05. Three female mongrel dogs underwent continuous recording of lower esophageal sphincter pressure under anesthesia. NGES was delivered to the lower esophageal sphincter for 10 minutes at: […] Changes in lower esophageal sphincter pressure during NGES are presented as percent change from preceding baseline. Results (FIG. 6) are presented as mean±SD.

[1] = in words, anesthetized dogs, L-NAME 50 mg/kg, atropine 0.05 mg/kg in presence of L-NAME
[2] = in words, anesthetized dogs, L-NAME 50 mg/kg, atropine 0.05 mg/kg in presence of L-NAME, listed as atropine
[3] = LES pressure during NGES, percent change from preceding baseline, L-NAME 50 mg/kg, atropine 0.05 mg/kg in presence of L-NAME, mean (SD)
[4] = during NGES, L-NAME 50 mg/kg, atropine 0.05 mg/kg in presence of L-NAME, mean (SD)

SMILES	Effect on (baseline) lower esophageal sphincter pressure [1]	Effect on initial rise in lower esophageal sphincter pressure induced by NGES [1]	Effect on (baseline) lower esophageal sphincter pressure [2]	Effect on initial rise in lower esophageal sphincter pressure induced by NGES [2]	Initial Peak (% change) [3]	Relaxation (% change) [3]	Lower Esophageal Sphincter Pressure Baseline (anesthetized female mongrel dogs, L-NAME infusion 50 mg/kg, atropine 0.05 mg/kg in the presence of L-NAME, mean (SD))	Peak Duration [4]	Relaxation Duration [4]	Effect on lower esophageal sphincter relaxation phase following NGES (in words, anesthetized dogs, L-NAME 50 mg/kg)
CN1[C@@H]2CC[C@H]1C[C@@H](OC(=O)C(CO)c1ccccc1)C2 (stereo partly drawn) [Atropine, atropine]	lowered	abolished	reduced	reduced	–	–	–	–	–	–
COC(=O)[C@@H](N)CCCNC(=N)N[N+](=O)[O-] [L-NAME]	increased	augmented; also recorded: enhanced	–	–	76 (48.6) % change	28.2 (34.1)** % change	35.7 (5.1)* mmHg	6.7 (3.9) sec	4.4 (3.8) sec	markedly diminished or abolished; also recorded: markedly suppressed
